The source of these data is US9737511B2, “Method of treating or preventing pathologic effects of acute increases in hyperglycemia and/or acute increases of free fatty acid flux” (Albert Einstein College of Medicine, Inc., priority 2004, dated 2017).

For test [1], the system named is bovine aortic endothelial cells. As to the kind of experiment: DNA strand breakage, Comet assay. In kind it is cell-based. The settings on record: 30 mM glucose plus 100 μM compound, 7 days, FIG. 24. As to the method:
Bovine aortic endothelial cells (“BAECs”, passage 4-10) were plated in 10 mm cell culture plates until confluent. Cells were incubated with either 5 mM glucose, 30 mM glucose, 30 mM glucose plus 100 μM deferoxamine (DFO), or 30 mM glucose plus 100 μM DMSO, a hydroxyl radical scavenger, for 7 days. Medium with reagents was changed daily. DNA strand breakage was detected using the Comet assay method.
DNA breakage detection was performed using the Comet Assay kit (Trevigen Gaitherburg Md.). Briefly, single cell electrophoresis was performed on the cometslide for 10 min at 1 volt/cm (measured from one electrode to another). After air-drying, the cometslide was stained with SYBR green. Fluorescence was detected using the Olympus IX70 fluorescent microscope and analysis of the fluorescent density of DNA breakage (length of tail) was performed using Image J software.

Test [2] deals with poly (ADP-ribose)polymerase (PARP). As to the kind of experiment: PARP activity by 3H-NAD incorporation in aortic endothelial cells. It is filed as cell-based, bovine. The settings on record: 30 mM glucose plus 100 μM compound, 6 days, FIG. 25. As to the method:
Bovine aortic endothelial cells (“BAECs”, passage 4-10) were plated in 10 mm cell culture plates until confluent. Cells were incubated with either 5 mM glucose, 30 mM glucose, 30 mM glucose plus 100 μM deferoxamine, or 30 mM glucose plus 100 μM DMSO for 6 days and medium changed daily.
The 3H-NAD incorporation method was used to assess PARP activity. BAECs were incubated with buffer which was composed of 56 mM Hepes (pH 7.5), 28 mM KCl, 28 mM NaCl, 2 mM MgCl2, 0.01% digitonin, 25 mM NAD^+, and 1 μCi/ml ^3HNAD^+ for 10 min at 37° C. TCA was added to precipitate ribosylated protein and cells were lysed in 2% NaOH. Detection of incorporated ^3H-NAD was performed using a scintillation counter, and PARP activity determined according to the number of ^3H-NAD dpm.

The test system of test [3] is prostacyclin synthase. The test can be described thus: Prostacyclin synthase activity in aortas of diabetic mice. It is filed as in vivo, mouse. Particulars: STZ diabetic mice, 10 mg/kg subcutaneously once per day for 7 days, FIG. 27 bar 3. As for the experimental part: Male C57B16 mice (6-8 weeks old) were made diabetic by daily injections of 50 mg/kg streptozotocin in 0.05 M NaCitrate pH 4.5 after an eight hour fast, for five consecutive days. Two weeks after the initial injection the blood glucose was determined and the diabetic mice were randomized into two groups with equal mean blood glucose levels. Deferoxamine (10 mg/kg) was injected subcutaneously once per day for 7 days in one group of diabetic animals. The aortas were collected. for prostacyclin synthase activity measurement.
Prostacyclin synthase activity measurement A competitive immunoassay method (Correlate-EIA) was used for the quantitative determination of 6-keto-PGF1α. Mouse aortas were washed with PBS and incubated at 37° C. for 3 hours in 400 μl incubation buffer containing 20 mM TRIS buffer (pH 7.5), and 15 μM arachidonic acid. 100 μl of sample was used to measure the PGF 1α.

The subject of test [4] is streptozotocin-induced diabetic (STZ) and wild type C57 (WT) mice. The test can be described thus: Graded ischemia model in dorsal soft tissue (ischemic flap), angiogenic response to ischemia. Particulars: for EPC mobilization: STZ mice vs untreated STZ mice, day 7 postischemic insult, FIG. 35. It is filed as in vivo, mouse. The source says:
Since the vascular anatomy of the mouse dorsum is precisely known, and the major axial vessels can be easily visualized, one can create a reliable zone of ischemia with a reproducible oxygen gradient in the tissue. This has been confirmed with direct tissue oxygen tension measurements utilizing five reference points (p1-p5) spaced 0.5 cm apart proceeding from the least to most ischemic regions. This also allows for the study of discrete microenvironments of ischemia (Areas A, B, C), with Area A being the least ischemic and Area C being the most ischemic portion of the soft tissue. The design of this model facilitates direct dynamic measurement of oxygen tension, quantitation of tissue survival, with a degree of reproducibility that allows correlation of specific oxygen tensions with changes in gene expression.
Researchers have created a novel model of graded ischemia in the dorsal soft tissue of mice. Since the vascular anatomy of the mouse dorsum is precisely known, and the major axial vessels can be easily visualized, this model creates a reliable zone of ischemia with a reproducible oxygen gradient in the tissue. This has been confirmed with direct tissue oxygen tension measurements utilizing four reference points (p1-p4) spaced 0.5 cm apart, proceeding from the least to most ischemic regions.
The effect of deferoxamine, an iron chelator, on ischemic neovascularization in streptozotocin-induced diabetic (STZ) and wild type C57 (WT) mice was examined. Male C57B16 mice (6-8 weeks old) were made diabetic by daily injections of 50 mg/kg streptozotocin in 0.05 M NaCitrate pH 4.5 after an eight hour fast, for five consecutive days. Two weeks after the initial injection the blood glucose was determined, the diabetic mice were randomized into two groups with equal mean blood glucose levels.
The treatment group was pretreated 7 days prior to having an ischemic flap created on their dorsum and throughout the experiment with daily injections of deferoxamine (10 mg/kg) subcutaneously once per day for 7 days in one group of diabetic animals. […]

Test [5] concerns bovine aortic endothelial cells. The test can be described thus: Hyperglycemia-induced intracellular reactive oxygen species production (CM-H2DCFDA probe). In kind it is cell-based. Particulars: 30 mM glucose plus 250 μM deferoxamine, 72 hrs, FIG. 21 bar 4. As for the experimental part:
Cell culture conditions: For ROS measurement, bovine aortic endothelial cells (BAECs, passage 4-10) were plated in 96 well plates at 100,000 cells/well in Eagle's MEM containing 10% FBS, essential and nonessential amino acids, and antibiotics. Cells were incubated with either 5 mM glucose, 30 mM glucose, 30 mM glucose plus 100 micromolar deferoxamine, 30 mM glucose plus 250 micromolar deferoxamine. The deferoxamine was freshly prepared and added to the cells on three consecutive days. The ROS measurements were performed 72 hrs after the initial treatment.
Intracellular reactive oxygen species measurements: The intracellular formation of reactive oxygen species was detected using the fluorescent probe CMH2DCFDA (Molecular Probes). Cells (1×105 ml-1) were loaded with 10iM CM-H2DCFDDA, incubated for 45 min at 37° C., and analyzed in an HTS 7000 Bio Assay Fluorescent Plate Reader (Perkin Elmer) using the HTSoft program. ROS production was determined from an H202 standard curve (10-200 nmol ml-1).

In test [6] the test system is endothelial nitric oxide synthase (eNOS). As to the kind of experiment: eNOS activity in aortas of diabetic mice. In kind it is in vivo, mouse. The settings on record: STZ diabetic mice, 10 mg/kg subcutaneously once per day for 7 days, FIG. 29 bar 3. As to the method: Male C57B16 mice (6-8 weeks old) were made diabetic by daily injections of 50 mg/kg streptozotocin in 0.05 M NaCitrate pH 4.5 after an eight hour fast, for five consecutive days. Two weeks after the initial injection, the blood glucose was determined and the diabetic mice were randomized into two groups with equal mean blood glucose levels. Deferoxamine (10 mg/kg) was injected subcutaneously once per day for 7 days in one group of diabetic animals. The aortas were collected for endothelial nitric oxide synthase (eNOS) activity measurement.
Measurement eNOS activity was accomplished as follows. Aortas were collected in liquid-nitrogen and tissue proteins isolated. Immunoprecipitation methods were used to purify the eNOS from tissue lysates. The purified eNOS immuno-complex was incubated with 100 μl of reaction buffer (3 μM Tetrahydrobiopterin, ImM NAPDH, 2.5 mM CaCl2, 200 U Calmodulin, ^3H-L-arginine 0.2 μCi) for 45 min at 37° C. with rolling. After the incubation, samples were loaded onto Tris-formed DOWEX 50WX8 ion-exchange column and ^3H-citrulline was collected. ^3H-citrulline was quantitated using a liquid scintillation counter and eNOS activity was calculated from the amount of ^3H-citrulline generated.

The test system of test [7] is bovine aortic endothelial cells. As to the kind of experiment: Free intracellular iron measurement (fura-2 AM). It is filed as cell-based. Particulars: 30 mM glucose plus 100 μM deferoxamine, 24 hours, FIG. 23C. As for the experimental part:
In order to detect intracellular free iron, cells were loaded with fura-2 AM in the dark at 37° C. for 15 min in 1 ml of TBSS containing 5 μM furs-2 AM. After loading, cells were incubated with TBSS with Iml of 20 μM EDTA for 5 min. (Kress et al., “The Relationship between Intracellular Free Iron and Cell Injury in Cultured Neurons, Astrocytes, and Oligodendrocytes”, J. Neuro., 22(14):5848-5855 (2002), which is hereby incorporated by reference in its entirety). Fluorescence was detected using an Olympus IX70 with 10 X planapo objectives, run by I.P. Lab Spectrum on a Power PC computer. Analysis was performed with I.P.Lab Spectrum.
Bovine aortic endothelial cells (“BAECs”, passage 4-10) were plated in 24 well plates at […] in Eagle's MEM containing 10% FBS, essential and nonessential amino acids, and antibiotics. Cells were incubated with either 5 mM glucose, 30 mM glucose, or 30 mM glucose plus 100 μM deferoxamine. Free intracellular iron measurement was performed 24 hours later. To detect intracellular free iron, cells were loaded with fura-2 AM as described above in Example 12.

The subject of another test is diabetic mice (db/db). The test can be described thus: Diabetic wound healing (wound closure). Particulars: deferoxamine-treated diabetic mice, FIGS. 33A-B. In kind it is in vivo, mouse. The source says:
The effect of reducing the wound healing in diabetic mice (db/db) by treating them with deferoxamine was also studied in the novel model of graded ischemia in the dorsal soft tissue of mice of Example 20. The animals were made diabetics as described in Example 21.

Test [8] deals with endothelial nitric oxide synthase (eNOS). The test can be described thus: eNOS activity (3H-citrulline) in aortic endothelial cells. It is filed as cell-based, bovine. Particulars: 30 mM glucose plus 100 μM deferoxamine, 24 hour, FIG. 28 bar 3. As to the method:
Bovine aortic endothelial cells (“BAECs”, passage 4-10) were plated in 24-well plate (50,000 cell/well). Cells were incubated with either 5 mM glucose, 30 mM glucose alone, or 30 mM glucose plus 100 μM deferoxamine, for 24 hour. Six hours before eNOS activity determination, media without arginine was added to the cells to deplete endogenous arginine.
Measurement of eNOS activity was accomplished as follows. BAECs were incubated with 400 μl of PBS-^3H-arginine (1.5 μci/ml) buffer for 30 min at 37° C. The reaction was stopped by adding IN TCA (500 μl/well, ice cold ), the cells were freeze fractured in liquid nitrogen for 2 min and thawed at 37° C. for 5 min to obtain the cell lysate. After extraction with ether, the cell lysate was adjusted to pH 5.5 using Hepes buffer containing 2 mM EDTA and 2 mM of EGTA, then loaded onto Trisformed DOWEX 50WX8 ion-exchange columns and ^3H-citrulline collected. Detection of ^3H-citrulline was performed using a liquid scintillation counter, and eNOS activity was calculated from the amount of ^3H-citrulline generated.

For test [9], the system named is prostacyclin synthase. As to the kind of experiment: Prostacyclin synthase activity (6-keto-PGF1α immunoassay) in aortic endothelial cells. In kind it is cell-based, bovine. Particulars: 30 mM glucose plus 100 μM deferoxamine, 24 hours, FIG. 26 bar 3. As for the experimental part: Bovine aortic endothelial cells (“BAECs”, passage 4-10) were plated in a 24-well plate (50,000 cell/well). Cells were incubated with either 5 mM glucose, 30 mM glucose, or 30 mM glucose plus 100 μM deferoxamine. The prostacyclin synthase product, PGF-1α, was measured 24 hours later.
Prostacyclin synthase activity measured as the concentration of the stable product of prostacyclin synthase, PGF-1a. A competitive immunoassay method (Correlate-EIA) was used for the quantitative determination of 6-keto-PGF1α. Samples (100 μl) collected from BAECs culture medium were added to the assay plate, which was precoated with antibody (6-keto-PGF1α, EIA conjugate solution). PGF1α concentration was calculated according to a standard curve, and data analysis performed using AssayZap software.

The nature of test [10]: Migration of diabetic bone marrow derived, lineage depleted cells toward SDF. In kind it is cell-based, mouse. Particulars: cells from STZ mice treated with deferoxamine.

In the case of `C[S+](C)[O-]` [DMSO], in test [1], the “hyperglycemia-induced DNA strand breakage” value is given as “Inhibit”. In test [2], the “hyperglycemia-induced PARP activation” value is on record as “Inhibit”.

Take `CC(=O)N(O)CCCCCNC(=O)CCC(=O)N(O)CCCCCNC(=O)CCC(=O)N(O)CCCCCN` [deferoxamine]: the “diabetes-induced inhibition of prostacyclin synthase activity in aortas” value in the test with prostacyclin synthase [3] is reported as “does not inhibit the activity of this important antiatherogenic enzyme at all”. The EPC mobilization result in test [4] was “improved”; in test [4] (listed as Deferoxamine), “restores”. In addition, the tissue survival entry in test [4] (STZ mice, 10 mg/kg s.c. daily, FIG. 31B) is listed as “restored to normal”. Besides, the “blood flow assessed by Doppler” value in test [4] (STZ mice, 10 mg/kg s.c. daily, day 7, FIG. 31A) is listed as “restored to normal”. For the same molecule, the “post-ischemic neovascularization (CD31 positive blood vessel counts)” value in test [4] (STZ mice, FIG. 32) is listed as “restored”. The “bone marrow-derived endothelial precursor cells mobilized in response to ischemia” value in test [4] (deferoxamine-treated diabetic animals, FIGS. 34C-D) is on record as 1.12%. Besides, the “capillary formation in ischemic tissue” value in test [4] (deferoxamine-treated diabetic mice vs untreated, FIG. 34E-F) was “substantially increase”. For the same molecule, in test [4] (deferoxamine-treated diabetic mice, FIGS. 34A-B), the “oxygenation of ischemic flap by forming new vessels” value is “increase oxygenation”. In test [4] (diabetic animals treated with deferoxamine), the “diabetes-induced defect in the normal angiogenic response to ischemia” value is “completely prevents”. Also, the “neovascularization (CD31 positive blood vessel counts)” value in [4] (wild type mice, FIG. 32) is on record as “improved neovascularization”. The “hyperglycemia-induced increased ROS (superoxide) production” value in [5] was “completely prevents”. Further, the “diabetes-induced inhibition of eNOS activity in aortas” value in test [6] is listed as “does not inhibit the activity of this important antiatherogenic enzyme at all”. Moreover, in test [1], the “hyperglycemia-induced DNA strand breakage” value is recorded as “prevents”. For the same molecule, in test [2], the “hyperglycemia-induced PARP activation” value is reported as “prevents”. For the same molecule, the “hyperglycemia-induced increase in intracellular free iron” value in [7] was “completely prevents”. The complete wound closure in the test on diabetic mice (db/db) turned out to be 16 days. In addition, the “hyperglycemia-induced inhibition of eNOS activity” value in test [8] is given as “does not inhibit the activity of this important antiatherogenic enzyme at all”. Further, the “hyperglycemia-induced inhibition of prostacyclin synthase activity (PGF-1α)” value with prostacyclin synthase [9] is “does not inhibit the activity of this important antiatherogenic enzyme at all”. Besides, the “migration toward SDF” value in [10] was “restored to normal”.
